Test results published in US10072011B2, “Substituted bridged urea analogs as sirtuin modulators” (GlaxoSmithKline Intellectual Property (No.2) Limited, priority 2014, dated 2018).

Target: T1, SIRT1 (Homo sapiens, UniProt Q96EB6)
T1 sequence (Q96EB6 1-747): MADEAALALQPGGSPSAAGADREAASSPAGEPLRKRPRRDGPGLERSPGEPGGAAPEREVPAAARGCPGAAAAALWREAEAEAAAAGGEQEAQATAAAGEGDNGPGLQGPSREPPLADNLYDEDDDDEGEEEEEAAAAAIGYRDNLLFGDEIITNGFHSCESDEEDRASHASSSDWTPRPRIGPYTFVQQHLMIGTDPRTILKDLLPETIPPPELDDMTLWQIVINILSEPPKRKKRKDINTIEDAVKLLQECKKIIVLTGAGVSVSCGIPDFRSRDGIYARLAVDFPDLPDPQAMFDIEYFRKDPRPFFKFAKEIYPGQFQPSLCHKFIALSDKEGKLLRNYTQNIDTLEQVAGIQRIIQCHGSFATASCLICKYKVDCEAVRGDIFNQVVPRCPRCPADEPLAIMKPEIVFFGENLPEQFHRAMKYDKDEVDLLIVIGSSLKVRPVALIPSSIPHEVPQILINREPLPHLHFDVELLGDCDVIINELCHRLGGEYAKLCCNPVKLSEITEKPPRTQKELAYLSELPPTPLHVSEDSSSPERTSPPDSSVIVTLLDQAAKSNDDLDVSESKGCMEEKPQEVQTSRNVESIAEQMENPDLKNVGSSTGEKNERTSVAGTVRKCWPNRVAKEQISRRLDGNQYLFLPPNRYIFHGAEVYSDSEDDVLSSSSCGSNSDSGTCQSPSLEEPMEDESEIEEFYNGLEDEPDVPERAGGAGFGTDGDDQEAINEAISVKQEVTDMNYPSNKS
Assay: Trp mass spectrometry assay of SIRT1 activation (Ac-R-H-K-K(Ac)-W-NH2 peptide)
Format: biochemical
Settings: Trp peptide 0.5 μM, 120 μM βNAD+, 10 nM SIRT1, 25 min at 25° C.; for Emax: 25 min, read-out: TRP MAX RESP (percent maximum fold activation); for Emax / TRP MAX RESP (percent maximum fold activation): relative to control (100%)
Method: The Trp mass spectrometry assay was conducted as follows. […] The SIRT1 protein was obtained by cloning the SirT1 gene into a T7-promoter containing vector, which was then expressed in BL21(DE3) bacterial cells and purified as described in further detail below. Test compound was added at varying concentrations to this reaction mixture and the resulting reactions were monitored. After the 25 minute incubation with SIRT1, 10 μL of 10% formic acid was added to stop the reaction. The resulting reactions were sealed and frozen for later mass spec analysis. The relative SIRT1 activity was then determined by measuring the amount of O-acetyl-ADP-ribose (OAADPR) formed (or, alternatively, the amount of deacetylated Trp peptide generated) by the NAD-dependent sirtuin deacetylation reaction in the presence of varying concentrations of the test compound versus control reactions lacking the test compound. The degree to which the test agent activated deacetylation by SIRT1 was expressed as EC1.5 (i.e., the concentration of compound required to increase SIRT1 activity by 50% over the control lacking test compound), and Percent Maximum Activation (i.e., the maximum activity relative to control (100%) obtained for the test compound).
This time point was the same as that used for test compounds and, within the linear range, the endpoint represents a change in velocity.
For the above assay, SIRT1 protein was expressed and purified as follows. The SirT1 gene was cloned into a T7-promoter containing vector and transformed into BL21(DE3). The protein was expressed by induction with 1 mM IPTG as an N-terminal His-tag fusion protein at 18° C. overnight and harvested at 30,000×g. Cells were lysed with lysozyme in lysis buffer (50 mM Tris-HCl, 2 mM Tris[2-carboxyethyl]phosphine (TCEP), 10 μM ZnCl2, 200 mM NaCl) and further treated with sonication for 10 min for complete lysis. The protein was purified over a Ni-NTA column (Amersham) and fractions containing pure protein were pooled, concentrated and run over a sizing column (Sephadex S200 26/60 global). The peak containing soluble protein was collected and run on an Ion-exchange column (MonoQ). Gradient elution (200 mM-500 mM NaCl) yielded pure protein. This protein was concentrated and dialyzed against dialysis buffer (20 mM Tris-HCl, 2 mM TCEP) overnight. The protein was aliquoted and frozen at −80° C. until further use.
“NT” means not tested; “ND” means not determinable.

Structure (SMILES) | TRP Activity (EC1.5, concentration of test compound that results in 150% activation of SIRT1) | Emax | TRP MAX RESP (percent maximum fold activation)
O=C(NC1CC1(F)F)c1ccc2c(n1)N(C(=O)Nc1ccc(F)cn1)[C@H]1CCN2C1 (single isomer, unassigned) [Example 243] | A (EC1.5<1 μM) |  | 
O=C(NC1CC1(F)F)c1ccc2c(n1)N(C(=O)Nc1cc(OC[C@H](O)CO)ccn1)[C@H]1CCN2C1 (single isomer, unassigned) [Example 245] | A (EC1.5<1 μM) | > 150% | 
O=C(NC(CCO)C(F)(F)F)c1ccc2c(n1)N(C(=O)Nc1ccccn1)[C@H]1CCN2C1 (single isomer, unassigned) [Example 248] | B (EC1.5 1-25 μM) |  | A (Fold activation≥150%)
NC(CNC(=O)c1ccc2c(n1)N(C(=O)Nc1ccccn1)[C@H]1CCN2C1)C(F)(F)F (single isomer, unassigned) [Example 249] | B (EC1.5 1-25 μM) |  | 
O=C(N[C@@H]1CC1(F)F)c1ccc2c(n1)N(C(=O)Nc1cnc(OC[C@H](O)CO)cn1)[C@H]1CCN2C1 (single isomer, unassigned) [Example 260] | B (EC1.5 1-25 μM) | > 150% | 
O=C(NC1CC1(F)F)c1ccc2c(n1)N(C(=O)Nc1cc(OCCO)ccn1)[C@H]1CCN2C1 (single isomer, unassigned) [Example 262] | A (EC1.5<1 μM) | > 150% | 
O=C(NC1CC1(F)F)c1ccc2c(n1)N(C(=O)Nc1cc(OCCO)ccn1)[C@H]1CCN2C1 (single isomer, unassigned) [Example 263] | B (EC1.5 1-25 μM) |  | A (Fold activation≥150%)
O=C(NC1CC1(F)F)c1ccc2c(n1)N(C(=O)Nc1cccnn1)[C@H]1CCN2C1 (single isomer, unassigned) [Example 270] | A (EC1.5<1 μM) | > 150% | 
O=C(NC1CC1(F)F)c1ccc2c(n1)N(C(=O)Nc1cccnn1)[C@H]1CCN2C1 (single isomer, unassigned) [Example 271] | B (EC1.5 1-25 μM) |  | A (Fold activation≥150%)
O=C(NC1CC1(F)F)c1ccc2c(n1)N(C(=O)Nc1cnccn1)[C@H]1CCN2C1 (single isomer, unassigned) [Example 272] | A (EC1.5<1 μM) | > 150% | 
O=C(NC1CC1(F)F)c1ccc2c(n1)N(C(=O)Nc1cnccn1)[C@H]1CCN2C1 (single isomer, unassigned) [Example 273] | B (EC1.5 1-25 μM) |  | A (Fold activation≥150%)
COc1ccnc(NC(=O)N2c3nc(C(=O)N[C@@H]4CC4(F)F)ccc3N3CC[C@H]2C3)c1 (single isomer, unassigned) [Example 274] | B (EC1.5 1-25 μM) | > 150% | 
COc1cc(NC(=O)N2c3nc(C(=O)NC4CC4(F)F)ccc3N3CC[C@H]2C3)ncn1 (single isomer, unassigned) [Example 298] | B (EC1.5 1-25 μM) | < 150% | 
C[C@@H](NC(=O)c1ccc2c(n1)N(C(=O)Nc1cc(CCC(O)CO)ccn1)[C@H]1CCN2C1)C(F)(F)F (single isomer, unassigned) [Example 302] | A (EC1.5<1 μM) | < 150% | 
COc1cc(NC(=O)N2c3nc(C(=O)NC4CC4(F)F)ccc3N3CC[C@H]2C3)ncn1 (single isomer, unassigned) [Example 303] | A (EC1.5<1 μM) |  | B (Fold Activation<150%)
O=C(NC1CC1(F)F)c1ccc2c(n1)N(C(=O)Nc1cc(OC[C@H](O)CO)ccn1)[C@H]1CCN2C1 (single isomer, unassigned) [Example 306] | B (EC1.5 1-25 μM) |  | B (Fold Activation<150%)
NC(CNC(=O)c1ccc2c(n1)N(C(=O)Nc1cc(OC[C@H](O)CO)ccn1)[C@H]1CCN2C1)C(F)(F)F (single isomer, unassigned) [Example 317] | B (EC1.5 1-25 μM) |  | B (Fold Activation<150%)
CCC(NC(=O)c1ccc2c(n1)N(C(=O)Nc1ccccn1)[C@H]1CCN2C1)C(F)(F)F (stereo in doubt) [Example 61, (4S)—N5-(pyridin-2-yl)-N7-((S)-1,1,1-trifluorobutan-2-yl)-3,4-dihydro-1,4-methanopyrido[2,3-b][1,4]diazepine-5,7(2H)-dicarboxamide] | A (EC1.5<1 μM) | > 150% | 
O=C(NCC(F)(F)F)c1ccc2c(n1)N(C(=O)Nc1ccccn1)[C@H]1CCN2C1 [Example 1] | A (EC1.5<1 μM) | > 150% | 
O=C(NC1CC1)c1ccc2c(n1)N(C(=O)Nc1ccccn1)[C@H]1CCN2C1 [Example 2, (4S)—N7-cyclopropyl-N5-(pyridin-2-yl)-3,4-dihydro-1,4-methano pyrido[2,3-b][1,4]diazepine-5, 7(2H)-dicarboxamide] | A (EC1.5<1 μM) | > 150% | 
O=C(c1ccc2c(n1)N(C(=O)Nc1ccccn1)[C@H]1CCN2C1)N1CCC(F)(F)C1 [Example 3, (4S)-7-(3,3-difluoropyrrolidine-1-carbonyl)-N-(pyridin-2-yl)-3,4-dihydro-1,4-methanopyrido[2,3-b] [1, 4] diazepine-5(2H)-carboxamide] | B (EC1.5 1-25 μM) | > 150% | 
O=C(NC1CCOCC1)c1ccc2c(n1)N(C(=O)Nc1ccccn1)[C@H]1CCN2C1 [Example 4, (4S)—N-5-(pyridin-2-yl)-N-7-(tetrahydro-2H-pyran-4-yl)-3,4-dihydro-1,4-methanopyrido [2,3-b] [1, 4] diazepine-5, 7(2H)-dicarboxamide] | B (EC1.5 1-25 μM) | > 150% | 
